Assay [1] has as its system M14. The assay is described as follows: Growth inhibition of human M14 cells assessed as cell growth at 0.5 uM incubated for 48 hrs by sulforhodamine B assay relative to control. Type of assay: functional. The note with it: M14, 48 h, read-out: Activity.
For assay [2], the system named is TK-10. Nature of the assay: Growth inhibition of human TK10 cells assessed as cell growth at 0.5 uM incubated for 48 hrs by sulforhodamine B assay relative to control. The note with it: TK-10, 48 h, read-out: Activity. It is filed as functional.
The species named for assay [3] is Homo sapiens. Nature of the assay: Selectivity index, ratio of IC50 for human BRAF V600E mutant to IC50 for human c-RAF.

For the compound `COc1cc2cc(Oc3ccc(NC(=O)Nc4cccc(C(F)(F)F)c4)cc3)c(C)nc2cc1OC`, the growth at 0.5 µM in assay [1] turned out to be 90%; in assay [2], 108%.
For the compound `COc1cc2cc(Oc3ccc(NC(=O)Nc4ccc(Cl)c(C(F)(F)F)c4)cc3)c(C)nc2cc1OC`, the Ratio IC50 in assay [3] is 2.6.
